Measured values: article PMC3141093 (2011)

Columns and labels:
[1] = biological target: anti-METH monoclonal antibody (mAb) generated from mice immunized with (+)-METH HSMO9 BSA MCV; assay: mAb affinity; assay type: binding, Mus musculus
[2] = biological target: anti-METH monoclonal antibody (mAb) generated from mice immunized with (+)-METH HSMO9 BSA MCV; assay: mAb affinity; assay type: binding, Mus musculus; remark: listed apart in the source

SMILES | Kd [1] | Ki [2]
CN[C@@H](C)Cc1ccccc1 [(+)-METH] | 6.8 nM | –
CN[C@@H](C)Cc1ccc2c(c1)OCO2 [(+)-MDMA] | – | 1.1 nM
